# Laboratory results: patent publication US20260363243A1 (priority 2022, published 2026)
# Experiments:
# Phytophthora infestans = assay: microbe, parasite or virus in culture; format: cell-based; conditions: read-out: inhibitory activity on hypha growth
# Phytophthora sojae = assay: In vitro inhibition of hypha growth of oomycete pathogens (microplate, OD595): Phytophthora sojae; format: cell-based; conditions: read-out: inhibitory activity on hypha growth
# cucumber downy mildew = assay: Activity in vivo for inhibiting cucumber downy mildew (potting method, greenhouse)
# Description: The test and investigation method refers to a SOP-SC-1098 cucumber downy mildew potting method in the fungicide section of Standard operation Specification for testing biological Activity of pesticides written by Kang Zhuo and Gu Baogen.
# Phytophthora nicotianae = assay: In vitro inhibition of hypha growth of oomycete pathogens (microplate, OD595): Phytophthora nicotianae; format: cell-based; conditions: Phytophthora nicotianae, read-out: inhibitory activity on hypha growth
# Phytophthora capsici = assay: In vitro inhibition of hypha growth of oomycete pathogens (microplate, OD595): Phytophthora capsici; format: cell-based; conditions: read-out: inhibitory activity on hypha growth
# [1] = test system: Cucumber downy mildew (Pseudoperonospora cubensis); assay: Field efficacy test for controlling cucumber downy mildew; conditions: 50 mg/L
# Protocol: The test was carried out according to the Guidelines for the Field Efficacy Trials of Pesticides (Part 1): Fungicides Against Downy Mildew of Cucumber (GB/T17980.26-2000). The test site was a mature vegetable base of Hushu in Nanjing, Jiangsu Province. Cucumber downy mildew (Pseudoperonospora cubensis) was used as the target, oxathiapiprolin and Yin Fali were used as control agents. The test crops was cucumber and the variety was ‘Green Core’. The plots were arranged in a randomized block design, with each plot approximately 8 m^2 and each treatment replicated three times. The whole stem and leaf spray was employed, the test was carried out at the early stage of cucumber downy mildew occurrence, and the agents were applied twice consecutively, with the second application 5 days after the first one. The investigation method was to take one investigation point for every row of cucumbers in each treatment district, assess the severity of downy mildew of all leaves of all cucumber plants, and calculate the disease index and the prevention effect.
# [2] = after the first pesticide application
# [3] = after the second pesticide application
compound,measurement,setting,value
"Cc1cc(C(F)(F)F)nn1CC(=O)N1CCC(c2nc(C3=NOC(c4c(F)cccc4F)C3)cs2)CC1 (stereo not shown) [OXA, oxathiapiprolin, reference compound]",inhibition at 0.005 µg/mL,Phytophthora infestans,90 to 100%
same,inhibition at 0.05 µg/mL,Phytophthora infestans,90 to 100%
same,inhibition at 0.5 µg/mL,Phytophthora infestans,90 to 100%
same,inhibition at 5 µg/mL,Phytophthora infestans,90 to 100%
same,inhibition at 0.005 µg/mL,Phytophthora sojae,90 to 100%
same,inhibition at 0.05 µg/mL,Phytophthora sojae,90 to 100%
same,inhibition at 0.5 µg/mL,Phytophthora sojae,90 to 100%
same,inhibition at 5 µg/mL,Phytophthora sojae,90 to 100%
same,Control effect,"cucumber downy mildew; 0.005 mg/L, re-screening, Table 2",A (90%≤A≤100%)
same,Control effect,"cucumber downy mildew; 0.02 mg/L, re-screening, Table 2",A (90%≤A≤100%)
same,Control effect,"cucumber downy mildew; 0.078 mg/L, re-screening, Table 2",A (90%≤A≤100%)
same,Control effect,"cucumber downy mildew; 0.312 mg/L, re-screening, Table 2",A (90%≤A≤100%)
same,Control effect,"cucumber downy mildew; 0.625 mg/L, Table 3",A (90% ≤ A ≤ 100%)
same,Control effect,"cucumber downy mildew; 1.25 mg/L, re-screening, Table 2",A (90%≤A≤100%)
same,Control effect,"cucumber downy mildew; 2.5 mg/L, Table 3",A (90% ≤ A ≤ 100%)
same,Control effect,"cucumber downy mildew; 10 mg/L, Table 3",A (90% ≤ A ≤ 100%)
same,inhibition at 0.005 µg/mL,Phytophthora nicotianae,90 to 100%
same,inhibition at 0.05 µg/mL,Phytophthora nicotianae,90 to 100%
same,inhibition at 0.5 µg/mL,Phytophthora nicotianae,90 to 100%
same,inhibition at 5 µg/mL,Phytophthora nicotianae,90 to 100%
same,inhibition at 0.005 µg/mL,Phytophthora capsici,90 to 100%
same,inhibition at 0.05 µg/mL,Phytophthora capsici,90 to 100%
same,inhibition at 0.5 µg/mL,Phytophthora capsici,90 to 100%
same,inhibition at 5 µg/mL,Phytophthora capsici,90 to 100%
same,Average control effect,[1]; [2],36.02%
same,Average disease index,[1]; [2],5.36
same,Average control effect,[1]; [3],74.87%
same,Average disease index,[1]; [3],8.59
